Values joined by “and” are separate entries in the source; they are usually repeats but may differ in a detail not shown here. Equal entries are not always repeated.
System: P. falciparum 3D7 growth, pLDH absorbance
Test: P. falciparum 3D7 growth inhibition, dose response, strain 3D7 (AID 2305)

| SMILES | IC50 |
| --- | --- |
| CC(=O)Nc1ccc(CN2CCC(N(C)c3cc(NC(=O)c4ccc(F)cc4)ccn3)CC2)cc1 | 1120 nM |
| CC(=O)Nc1cccc(C(=O)Nc2cccc(-c3csc(-c4nc5ccccc5[nH]4)c3)c2)c1 | 180 nM |
| COc1cc2c(c(OC)c1[N+](=O)[O-])C=CC1(O2)N(C)c2ccc([N+](=O)[O-])cc2C1(C)C (stereo not drawn) | 910 nM |
| CC(=O)c1sc(Cc2nc3ccccc3s2)nc1C | 1070 nM |
| COc1ccc(C(=O)Cn2nc(-c3ccc(Cl)cc3)ccc2=O)c(OC)c1 | 500 nM |
| O=C(/C=C/c1ccc(Cl)c(Cl)c1)NCC(CCCN1CCC(c2c[nH]c3ccccc23)CC1)c1ccccc1 (stereo not drawn) | 810 nM |
| Cc1nc2ccc(NC(=O)c3cc(S(=O)(=O)N(C)C)ccc3Cl)cc2s1 | 820 nM |
| COc1ccc2nc(C)cc(NN=Cc3cc(OC)c(OC)cc3OC)c2c1 | 740 nM |
| CCCCCOc1ccc(N2C(N)=NC(N)=NC2(C)C)cc1 | 200 nM |
| Cc1ccc(CC(C)NCC(O)c2cccc(Br)c2)cc1 (stereo not drawn) | 800 nM |
| Clc1cc(Nc2ncnc3sc(C#Cc4ncc[nH]4)cc23)ccc1OCc1ccccn1 | 1110 nM |
| O=C(/C=C/c1ccc(Cl)cc1)NCCCCCN1CCN(C(=O)Nc2ccc(Cl)c(C(F)(F)F)c2)CC1 | 920 nM |
| Cc1nnc(-c2cccc(Nc3ccnc4cc(-c5nccs5)ccc34)c2)o1 | 630 nM |
| CC(C)(C)c1ccc(CN2CCC(CNC(=O)c3cc(-c4cccc(Cl)c4)cs3)C2)cc1 (stereo not drawn) | 1160 nM |
| N#Cc1ccc(CN2CCC(Oc3ccc(NC(=O)c4ccccc4)cc3Cl)CC2)cc1 | 1260 nM |
| Cc1cc(NC(=O)c2coc3cc(F)c(N4C[C@@H](C)N(C)[C@@H](C)C4)cc23)ccc1-n1ccnc1 | 840 nM |
| O=C(/C=C/c1ccc(Cl)c(Cl)c1)NC1CCC(CN2CCC(Cc3cc4ccccc4[nH]3)CC2)CC1 (stereo not drawn) | 510 nM |
| Oc1ccc(CCNc2nc(N/N=C/C=C/c3ccc(Cl)cc3)nc(N3CCNCC3)n2)cc1 | 780 nM |
| O=C(Nc1ccc2c(c1)CN(Cc1ccc(N3CCCC3)o1)CCC2)c1ccoc1 | 950 nM |
| O=C(Cc1cnc[nH]1)Nc1cccc(-c2ccc(-c3nc4ccc(F)cc4[nH]3)cc2)c1 | 810 nM |
| CCCCCCCN1CCC(CCNc2ccnc3ccc(OC)cc23)CC1 | 950 nM |
| Fc1cc(Cl)ccc1Nc1ccnc2cc(-c3scnc3CNCCN3CCOCC3)ccc12 | 850 nM |
| Cc1cc(N(C)C2CCN(CC3CCCCC3)C2)nc(Nc2ccc(Br)cc2)n1 (stereo not drawn) | 700 nM |
| NC(N)=Nc1nc(-c2cccc(NC(=O)Cc3ccccc3)c2)cs1 | 1000 nM |
| Cc1ccc2[nH]cc(/C=C/C(=O)NC3CCC(CCN4CCc5ccc(C#N)cc5CC4)CC3)c2c1 (stereo not drawn) | 920 nM |

| SMILES | IC50 |
| --- | --- |
| O=C(NCCCCN1CCC(c2ccc3ccccc3c2)CC1)c1ccc(NC(=O)c2ccc(Cl)cc2)cc1 | 230 nM |
| COc1ccc(CNC(=O)c2cnc3c(O)cccc3c2Nc2cccc(NC(=O)c3ccc(Cl)c([N+](=O)[O-])c3)c2)cc1 | 950 nM |
| O=C(c1cc(OC(F)(F)F)ccc1O)N1CCN(c2ccccc2)CC1 | 1050 nM |
| O=C(C=NO)Nc1ccccc1[N+](=O)[O-] | 790 nM |
| CN(C)Cc1cccc(-c2ccc(NC(=O)c3ccc4c(=O)n(Cc5ccoc5)cnc4c3)cc2)c1 | 770 nM |
| CC(CN1CCN(C)CC1)C(=O)Nc1ccc(-c2ccc(-c3nc4ccc(C(F)(F)F)cc4[nH]3)cc2)cc1 (stereo not drawn) | 410 nM |
| COc1ccc(/C=C/c2ccc(-c3c(C)[nH]c(C)c(Cl)c3=O)cc2)cc1OC | 280 nM |
| COc1cccc(C(=O)Nc2ccc(Nc3nc(C)cc(N4CCCCC4)n3)cc2)c1OC | 1020 nM |
| Cc1cc(Nc2ccc(C)c(Cl)c2)n2ncnc2n1 | 550 nM |
| O=C(NCc1cccc2ccccc12)C1CCCN(C(=O)c2ccc(O)c(-c3ccc(Cl)c(Cl)c3)c2)C1 (stereo not drawn) | 1030 nM |
| O=C(Nc1ccc(C(F)(F)F)cc1)c1ccc(S(=O)(=O)NC2CCCN(CC3CCCCC3)C2)cc1 (stereo not drawn) | 720 nM |
| CC(=O)C=C1CC(=O)N(C[C@@H](O)[C@H]2O[C@@H]3OC(C)(C)O[C@@H]3[C@H]2O)c2ccccc2N1 | 1260 nM |
| CC(Cc1ccc(Oc2ccc(Cl)cc2)cc1)NCC(O)c1cccc(Cl)c1 (stereo not drawn) | 740 nM |
| COc1ccccc1CC(C)NCC(O)c1cccc(Cl)c1 (stereo not drawn) | 810 nM |
| CN(C)S(=O)(=O)c1ccc(Nc2nc(NCCC3C=NC=N3)nc3cc[nH]c(=O)c23)cc1 (stereo not drawn) | 930 nM |
| CCNc1cc(C)nc(Nc2ccc(NC(=O)c3cccs3)cc2)n1 | 1020 nM |
| CC(C)CCNC(=O)[C@@H]1[C@H]2C(=O)N(C3CCCCC3)C(=O)[C@H]2[C@H]2C=C[C@@H]3C(c4ccc(C(C)(C)C)cc4)=NO[C@@H]3N21 | 790 nM |
| Cc1ccc(CNC(=O)[C@H](CCCN)Nc2cc(C)nc(NCC3CCCCC3)n2)cc1 | 1220 nM |
| O=C(/C=C/c1ccc(Cl)cc1)NC1CCC(CN2CCC(c3c[nH]c4ccccc34)CC2)CC1 (stereo not drawn) | 800 nM and 730 nM |
| Nc1cccc(CNCc2cccc(-c3cccc(-c4nc5ccc(F)cc5[nH]4)c3)c2)c1 | 690 nM |
| O=C(N[C@@H](Cc1ccccc1)[C@H](O)CNC1CCOCC1)c1cc(C2CCCC2)cc(N2CCCCS2(=O)=O)c1 | 200 nM |
| CN1CCN(c2ncnc3ccc(NC(=O)Nc4ccc(Cl)c(Cl)c4)cc23)CC1 | 260 nM |
| O=C(Nc1ccc(Cl)cc1)c1cccc(CN2CCCN(Cc3cccc(O)c3)CC2)c1 | 960 nM |
| COc1cc2nccc(Nc3ccc(NC(=O)c4ccc(C)cc4)c(O)c3)c2cc1OC | 170 nM |
| C(=N\Nc1nccc2sc(-c3cccnc3)cc12)/c1ccncc1 | 210 nM |

| SMILES | IC50 |
| --- | --- |
| COc1cc(Cc2c(C)nc3nc(N)nc(N)c3c2C)c(Br)c(OC)c1OC | 400 nM |
| O=C(NC1CCN(c2ccnc3cc(Cl)ccc23)C1)c1ccc(F)cc1F (stereo not drawn) | 370 nM |
| CC(C)(C)c1ccc(NC(=O)c2ccc(CN3CCCN(Cc4ccsc4)CC3)cc2)cc1 | 720 nM |
| CCCCC(CC)C(=O)C(NC(=O)[C@H](CSC(c1ccccc1)(c1ccccc1)c1ccccc1)NC(=O)OC(C)(C)C)C(=O)OC (stereo partly drawn) | 1020 nM |
| COc1cccc(C(=O)Nc2ccc(Oc3ccc(Cl)cc3)cc2)c1 | 960 nM |
| O=C(Nc1ccccc1)NC1CCN(CCC2(c3ccc(Cl)c(Cl)c3)COCN(C(=O)c3ccccc3)C2)C1 (stereo not drawn) | 880 nM |
| COc1ccc(-c2nc3c(N)nc(N)nc3nc2-c2ccccc2Cl)cc1 (tested in a mixture with another compound) | 550 nM |
| N#Cc1ccc(CN2CCC(Oc3ccc(NC(=O)c4cccs4)cc3)CC2)cc1 | 1030 nM |
| Cc1ccc(-c2cc3nc4c(c(NCCCn5ccnc5)n3n2)CCC4)cc1 | 920 nM |
| CCCNCc1ccc(-c2ccc(CN(Cc3cnc(C)cn3)C(=O)c3nn(-c4ccccc4)nc3C)cc2)nc1 | 420 nM |
| CCOC(=O)c1ccc(NC(=O)N(Cc2ccc(-c3ccc(CN4CCNCC4)cc3)cc2)Cc2cccnc2)cc1 | 930 nM |
| O=[N+]([O-])c1cccc(CNC2CCN(Cc3ccc(-c4ccccc4)cc3)CC2)c1 | 230 nM |
| O=C(CCCCCNC(=O)c1ccc(O)c(-c2cccc(C(F)(F)F)c2)c1)NCCN1CCCCC1 | 890 nM |
| CC1CCN(C(=O)C(Cc2c[nH]c3ccccc23)NS(=O)(=O)c2ccc(Cl)cc2)CC1 (stereo not drawn) | 720 nM |
| CCOc1ccc(N2C(N)=NC(N)=NC2(C)C)cc1 | 260 nM |
| COc1cc(F)c2ncc(Cl)c(CCN3CCC(NCc4ccc5c(n4)NC(=O)CO5)CC3)c2c1 | 500 nM |
| COc1ccc(CN2CCN(CCCCNC(=O)c3ccc(NC(=O)c4ccc(Cl)cc4)cc3)CC2)c(OC)c1 | 890 nM |
| CC(C)(C)c1ccc(N2C(N)=NC(N)=NC2(C)C)cc1 | 30 nM |
| Cc1cc2ccc(/C=C/C(=O)NC3CCC(CCN4CCc5ccc(C#N)cc5CC4)CC3)cc2[nH]1 (stereo not drawn) | 940 nM |
| Cc1cc(NCCc2ccccc2)nc(NC(=NCC(=O)OC(C)(C)C)Nc2ccc(C(F)(F)F)cc2)n1 | 330 nM |
| CCOc1cc(C)ccc1N1CCN(CCN2CCC(NC(=O)c3ccc(-c4ccc(C#N)cc4)cc3)CC2)CC1 | 1430 nM |
| Cc1cccc(Nc2nc(C)cc(N3CCCN(CC4CCCCC4)CC3)n2)c1 | 1120 nM |
| Nc1ccc(-c2ccc3ccnc(N)c3c2)cc1 | 680 nM |
| Cc1cc2nc(-c3ccc(C(=O)NCCCc4ccccc4)cc3)[nH]c2cc1C | 1180 nM |
| N#Cc1cccc(C(=O)Nc2cccc(-c3ccc(CN4CCCC4)cc3)c2)c1 | 700 nM |

| SMILES | IC50 |
| --- | --- |
| CC(=O)N[C@@H]1c2cc(C(C)=O)ccc2OC(C)(C)[C@@H]1O | 980 nM |
| Cc1cc(NN=CC=Cc2ccccc2)c2cc(F)ccc2n1 | 730 nM |
| CC(C)C[C@H](NC(=O)c1cc2ccccc2s1)C(=O)N[C@H]1CCN(Cc2ccc(OCCCN(C)C)c(Cl)c2)C1 | 900 nM |
| Cc1nc(/N=C(\N)NC(=O)NC2CCCCC2)nc2ccccc12 | 790 nM |
| Cc1ccc(-c2nnc(-c3ccc(C(=O)NC4CCN(Cc5ccc(C#N)cc5)CC4)cc3)o2)cc1Br | 850 nM |
| O=C(Oc1ccc(Cl)cc1C(=O)Nc1ccc([N+](=O)[O-])cc1Cl)c1ccccc1 | 910 nM |
| Cc1cc(N(C)C)nc(Nc2ccc(NC(=O)c3ccc(Br)o3)cc2)n1 | 1050 nM |
| Cn1c(C2C[C@H]3CC[C@H](C2)N3CC2CCC(NC(=O)/C=C/c3ccc(Cl)c(Cl)c3)CC2)nc2ccccc21 (stereo partly drawn) | 560 nM |
| O=C(CSc1ccccn1)Nc1c(F)cccc1F | 1210 nM |
| Cc1ccc(NC(=O)c2ccc3ncccc3c2)cc1OC1CCN(CCC(C)C)CC1 | 690 nM |
| CN(CCCCCNC(=O)/C=C/c1ccc(Cl)c(Cl)c1)CCc1c[nH]c2ccccc12 | 870 nM |
| Cc1nnc2c(N(C(=O)NCCc3ccccc3)C(=O)NCCc3ccccc3)cc3cc(Cl)ccc3n12 | 950 nM |
| CC(=O)Nc1nc(C(=O)Nc2cccc(-c3cccc(-c4nc5ccc(F)cc5[nH]4)c3)c2)cs1 | 90 nM |
| Oc1cccc(Nc2nc(NCc3ccccc3)c3ccccc3n2)c1 | 40 nM |
| Cc1cc(N(C)CCCN2CCCCC2)nc(Nc2ccc(Cl)cc2)n1 | 190 nM |
| Cc1nc(N)nc(N)c1CCCOc1ccc(Br)cc1 | 490 nM |
| CC(C)NCc1cccc(-c2ccc(NC(=O)c3ccc(F)cc3)cc2)c1 | 850 nM |
| COCCn1c(-c2cccc(Cl)c2)nn(-c2ccc([N+](=O)[O-])cc2Cl)c1=S | 740 nM |
| Cc1cccc(C(=O)Nc2ccnc(N3CCC(N(C)Cc4cccc(O)c4)CC3)c2)c1 | 920 nM |
| CC(C)NCc1ccc(-c2ccc(NS(=O)(=O)c3cccc4cccnc34)cc2)cc1 | 810 nM |
| COc1cc(CNC[C@@H](O)[C@H](Cc2ccccc2)NC(=O)c2cc(C3CCCC3)cc(N3CCCCS3(=O)=O)c2)cc(OC)c1 | 700 nM |
| NC1CCN(Cc2cccc(-c3csc(-c4nc5ccccc5[nH]4)c3)c2)C1 (stereo not drawn) | 890 nM |
| COc1cccc(CCNC(C)Cc2ccc(OCCCCOc3ccccc3)cc2)c1 (stereo not drawn) | 740 nM |

Reference: PubChem BioAssay AID2305 (GlaxoSmithKline (GSK), 2010)
